# Data from publication PMC4589873, “A pain-inducing centipede toxin targets the heat activation machinery of nociceptor TRPV1” (Nature Communications, 2015).
# “Also recorded” adds a separate entry of the source. Where a SMILES comes first, the peptide text is derived from it. Bridges are numbered along the chain shown (N, C = ends).
# Tests used:
# [1] = tested on: voltage-gated Ca channels; experiment: Selectivity recording on voltage-gated Ca channels; type: cell-based; conditions: 10 μM RhTx compared to toxin-free treatment
# Protocol: (§1) Supplementary Figure 3. […]
# (§2) mTRPV2 (c), mTRPV3 (d) and mTRPV4 (e). (f) Treatment with 10 μM RhTx (red traces)
# [2] = tested on: mTRPV4; experiment: Selectivity recording on mTRPV4; type: cell-based, mouse; conditions: RhTx at 10 μM
# Protocol: (§3) As described in details in a previous report, macroscopic currents (in whole-cell, inside-out or outside-out configuration) as well as single-channel currents were recorded using a HEKA EPC10 amplifier with the PatchMaster software (HEKA). Both pipette solution and bath solution contained 130 mM NaCl, 3 mM HEPES and 0.2 mM EDTA (pH 7.2). All recordings were performed at room temperature unless otherwise stated. A holding potential of 0 mV was used from which a testing pulse to +80 mV was applied. Statistical difference was determined using the Student’s t-test, and indicated by ** when reaching the significance level P<0.001.
# as §1, §2
# [3] = tested on: TRPV1; experiment: Single-channel recording of TRPV1; type: cell-based; conditions: single-channel analysis
# Protocol: as §3
# [4] = tested on: voltage-gated K channels; experiment: Selectivity recording on voltage-gated K channels; type: cell-based; conditions: 10 μM RhTx compared to toxin-free treatment
# Protocol: as §1, §2
# [5] = tested on: Trpv1−/− mice; experiment: Colonic temperature in TRPV1 knockout mice; type: in vivo, mouse; conditions: Trpv1−/− mice n=3, intraperitoneal, 10 μmol kg^−1
# Protocol: In vivo effects of RhTx on WT mice or Trpv1^−/− mice were examined according to protocols described previously. For the paw-licking assay, pain was induced in mice by intraplantar injection of 0.1% formalin, capsaicin (1 μmol per paw) or RhTx (1 μmol per paw). Each of the testing materials was dissolved in 100 μl saline. Control mice received the same volume of saline. Injected mice were placed individually into open polyvinyl cages (20 × 40 × 15 cm). Time spent licking the injected paw was recorded by a digital video camera during the following 40 min. For recording colonic temperature from WT or Trpv1^−/− mice, mice equipped with a copper-constantan thermocouple were individually placed in open polyvinyl cages. A data logger was connected to the thermocouple. Mice were injected intraperitoneally with 100 μl saline containing capsaicin or RhTx. The dose of capsaicin or RhTx was 10 μmol kg^−1 for these experiments. Mice in the control group received the same volume of saline.
# [6] = molecular target: T1, mTRPV1 (Mus musculus, UniProt Q704Y3); experiment: Whole-cell patch-clamp of mTRPV1 expressed in HEK293 cells; type: cell-based
# T1 construct: expressed in transfected cells; host or cells: HEK-293T
# T1 sequence (Q704Y3 whole entry): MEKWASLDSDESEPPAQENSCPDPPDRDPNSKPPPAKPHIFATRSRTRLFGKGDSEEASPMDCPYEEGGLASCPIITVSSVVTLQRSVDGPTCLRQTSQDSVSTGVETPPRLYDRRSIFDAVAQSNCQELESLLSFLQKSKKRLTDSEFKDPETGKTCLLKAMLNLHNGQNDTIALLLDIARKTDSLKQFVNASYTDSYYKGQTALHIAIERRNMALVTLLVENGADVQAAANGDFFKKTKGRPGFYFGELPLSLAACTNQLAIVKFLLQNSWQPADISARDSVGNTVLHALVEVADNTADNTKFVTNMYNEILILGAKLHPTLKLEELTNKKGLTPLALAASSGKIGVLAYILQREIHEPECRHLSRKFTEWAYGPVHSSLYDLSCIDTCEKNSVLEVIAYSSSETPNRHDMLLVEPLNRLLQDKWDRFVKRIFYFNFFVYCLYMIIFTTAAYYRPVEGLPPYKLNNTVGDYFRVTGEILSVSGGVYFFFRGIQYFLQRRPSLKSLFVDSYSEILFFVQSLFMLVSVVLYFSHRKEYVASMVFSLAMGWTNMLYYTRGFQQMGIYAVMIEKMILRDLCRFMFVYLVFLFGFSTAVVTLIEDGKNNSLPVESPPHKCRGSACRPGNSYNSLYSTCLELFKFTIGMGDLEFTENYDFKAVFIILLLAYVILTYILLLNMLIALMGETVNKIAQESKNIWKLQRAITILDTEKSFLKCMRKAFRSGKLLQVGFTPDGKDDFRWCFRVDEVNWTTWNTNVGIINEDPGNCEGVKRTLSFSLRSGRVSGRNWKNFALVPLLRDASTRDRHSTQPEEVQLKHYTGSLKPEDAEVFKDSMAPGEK
# From the text: TRPV1 and TRPV3 chimeras used in this study were generated by the overlapping extension method[54] and confirmed by DNA sequencing, as described previously. Briefly, to generate V1/3S, the primer pairs (5′-[…]-3′and 5′-[…]-3′) were used. To generate other TRPV1/TRPV3 chimeras, the enzyme cutting sites by MluI were made by the primer pair (5′-[…]-3′ and 5′-[…]-3′) for TRPV1 and the primer pair (5′-[…]-3′ and 5′-[…]-3′) for TRPV3. The enzyme cutting sites by PvuI were made by the primer pair (5′-[…]-3′ and 5′-[…]-3′) for TRPV1 and the primer pair (5′-[…]-3′ and 5′-[…]-3′) for TRPV3. The enzyme cutting sites by BsiWI were made by the primer pair (5′-[…]-3′ and 5′-[…]-3′) for TRPV1 and the primer pair (5′-[…]-3′ and 5′-[…]-3′) for TRPV3. V1/3M were generated by enzyme cut and paste between MluI and PvuI sites, while V1/3L were generated by enzyme cut and paste between MluI and BsiWI sites. V1_S1S2_1, V1_S1S2_3 and V1_S1S2_3 were generated as previously reported. All mTRPV1 point mutations were constructed using the QuickChange II XL site-directed mutagenesis kit following the manufacturer’s instruction. These point mutations were sequenced to confirm that appropriate constructs were made. HEK-293T cells were cultured and transiently transfected using Lipofectamine 2,000 (Invitrogen) as previously described.
# as §3
# [7] = tested on: mTRPV1 point mutants at D602, Y632, T634 and L461; experiment: Calcium imaging of mTRPV1 point mutants; type: cell-based, mouse; conditions: glycine or alanine mutation; 10 μM RhTx, 10 μM capsaicin
# From the text: TRPV1 and TRPV3 chimeras used in this study were generated by the overlapping extension method[54] and confirmed by DNA sequencing, as described previously. Briefly, to generate V1/3S, the primer pairs (5′-[…]-3′and 5′-[…]-3′) were used. To generate other TRPV1/TRPV3 chimeras, the enzyme cutting sites by MluI were made by the primer pair (5′-[…]-3′ and 5′-[…]-3′) for TRPV1 and the primer pair (5′-[…]-3′ and 5′-[…]-3′) for TRPV3. The enzyme cutting sites by PvuI were made by the primer pair (5′-[…]-3′ and 5′-[…]-3′) for TRPV1 and the primer pair (5′-[…]-3′ and 5′-[…]-3′) for TRPV3. The enzyme cutting sites by BsiWI were made by the primer pair (5′-[…]-3′ and 5′-[…]-3′) for TRPV1 and the primer pair (5′-[…]-3′ and 5′-[…]-3′) for TRPV3. […]
# Mouse DRG neurons were acutely dissociated and maintained in a short-term primary culture according to procedures as previous descripted. […] Fluorescence images of DRG neurons and HEK-293T cells were acquired with an Olympus IX81 microscope with Hamamatsu C4742 charge-coupled device camera controlled by the MetaFluor Software (Molecular Devices). Fluo-4 was excited by a mercury vapour light source with a 500/20-nm excitation filter, while fluorescence emission was detected with a 535/30-nm emission filter. Fluorescence images were required with automated routines written in MetaMorph software (Molecular Devices) and analysed with Igor Pro (Wavemetrics).
# [8] = tested on: dorsal root ganglion (DRG) neurons; experiment: Calcium imaging of DRG neurons (Fluo-4); type: cell-based, mouse; conditions: RhTx 10 μM, capsaicin 10 μM
# Protocol: Mouse DRG neurons were acutely dissociated and maintained in a short-term primary culture according to procedures as previous descripted. DRG neurons or HEK-293T cells were loaded with Fluo-4 AM in 2 mM Ca^2+ Ringer’s solution (140 mM NaCl, 5 mM KCl, 2 mM MgCl2, 10 mM glucose, 2 mM CaCl2 and 10 mM HEPES, pH 7.4). Fluorescence images of DRG neurons and HEK-293T cells were acquired with an Olympus IX81 microscope with Hamamatsu C4742 charge-coupled device camera controlled by the MetaFluor Software (Molecular Devices). Fluo-4 was excited by a mercury vapour light source with a 500/20-nm excitation filter, while fluorescence emission was detected with a 535/30-nm emission filter. Fluorescence images were required with automated routines written in MetaMorph software (Molecular Devices) and analysed with Igor Pro (Wavemetrics).
# [9] = Small unilamellar vesicle-binding assay; type: physicochemical
# Protocol: After the film rinsed with pentane was lyophilized at −40 °C overnight, the lipid was suspended with a buffer (10 mM HEPES, 50 mM KCl at pH 7.0). POPE (1-palmitoyl-2-oleoyl-phosphatidylethanolamine, 10 mg ml^−1) and POPG (1-palmitoyl-2-oleoylphosphatidyl-Dl-glycerol, 10 mg ml^−1) were mixed in a 3:1 ratio for POPE/POPG vesicle preparation. In total, 150 mM KCl was used instead of 50 mM KCl. The suspended lipid was then sonicated (in ice water) until the solution became transparent. RhTx was mixed with 10 mg ml^−1 (total concentration) small unilamellar vesicle (SUVs). The mixture was incubated for 40 min at room temperature before ultracentrifugation. Toxin–vesicle mixtures were centrifuged at 304,000g for 150 min. The residual toxins in the supernatant were evaluated by RP-HPLC using a linear gradient of acetonitrile containing 0.1% v/v trifluoroacetic acid.
compound,measurement,setting,value
"CC[C@H](C)[C@H](NC(=O)[C@@H]1CSSC[C@@H]2NC(=O)[C@H]([C@@H](C)O)NC(=O)[C@H](C(C)C)NC(=O)CNC(=O)[C@H](CC(N)=O)NC(=O)[C@@H](NC(=O)[C@@H]3CCCN3C(=O)[C@H](CC(N)=O)NC(=O)[C@H](CC(N)=O)NC(=O)[C@@H](N)CC(C)C)CSSC[C@H](NC(=O)[C@H](CCCNC(=N)N)NC(=O)[C@H](Cc3ccc(O)cc3)NC(=O)CNC(=O)[C@H](CO)NC(=O)[C@@H]3CCCN3C2=O)C(=O)N[C@@H](CO)C(=O)N[C@@H]([C@@H](C)CC)C(=O)N[C@@H](C(C)C)C(=O)N[C@@H](CC(=O)O)C(=O)N[C@@H](CCCCN)C(=O)N[C@@H](CCC(N)=O)C(=O)N1)C(=O)N[C@@H](CCCCN)C(=O)N[C@@H](CCCCN)C(=O)N[C@@H](CCC(=O)O)C(=O)O [RhTx] (H-LNNPCNGVTCPSGYRCSIVDKQCIKKE-OH; disulfide 5-16, 10-23; N-terminus and C-terminus assumed)",effect on voltage-gated Ca channels,[1],no detectable effect; also recorded: no discernable response
same,response of TRPV4,[2],no detectable effect; also recorded: no discernable response
same,inward single-channel current amplitude compared with capsaicin-elicited currents,[3],noticeable reduction
same,open probability,[3],near unity
same,effect on voltage-gated K channels,[4],no detectable effect; also recorded: no discernable response
same,core (colonic) temperature in knockout mice,[5],absent
same,activation of mouse TRPV1,[6],strongly activated
same,EC50,[6]; SEM,522 ± 162 nM
same,Hill slope,"[6]; whole-cell mTRPV1 currents, Hill fit, average±s.e.m., n=10, SEM",1.17±0.37
same,agonist-induced intracellular calcium increase in point mutants versus WT channel,[7],markedly reduced
same,intracellular calcium increase in capsaicin-responsive DRG neurons,[8],nearly as strong as capsaicin
same,RP-HPLC chromatograph before versus after treatment with POPC,"[9]; 0.1 mg RhTx, POPC SUVs 10 mg/ml, 10 mM HEPES, 50 mM KCl, pH 7.0, 40 min room temperature, supernatant RP-HPLC",No difference
same,RP-HPLC chromatograph before versus after treatment with POPE/POPG,"[9]; 0.1 mg RhTx, POPE/POPG 3:1 SUVs 10 mg/ml, 150 mM KCl, 40 min room temperature, supernatant RP-HPLC",No difference
same,incorporation into the lipid membrane (initial partition experiments),"[9]; SUVs 10 mg/ml, 40 min at room temperature, ultracentrifugation 304,000g 150 min, supernatant by RP-HPLC",does not incorporate into the lipid membrane
